ChEMBL document CHEMBL1155750, “Four new coumarin derivatives from Artemisia keiskeana” (J Nat Prod, 2001)
Values after ≈ are worked out from the molar mass of the structure shown.

Tests used:
Artemia = assay: Toxicity in brine shrimp at 100 ug/mL; assay type: organism-based; conditions: in vivo
[1] = Toxicity in brine shrimp; assay type: organism-based; conditions: artemia, in vivo

SMILES	Activity (Artemia)	LC50 [1] [µg/mL]
COc1cc2ccc(=O)oc2c(OC)c1OC/C=C(\C)CC/C=C(\C)CO [ARTEKEISKEANOL C]	Non-toxic	–
COc1cc2ccc(=O)oc2cc1OC/C=C(\C)CC/C=C(/C)CO [ARTEKEISKEANOL B]	–	70 (≈ 203 µM)
COc1cc2ccc(=O)oc2cc1OC/C=C(\C)CC/C=C(\C)CO [ARTEKEISKEANOL A]	–	60 (≈ 174 µM)
COc1cc2ccc(=O)oc2c(OC)c1OC/C=C(\C)CC/C=C(/C)CO [ARTEKEISKEANOL D]	Non-toxic	–
